Data on 20 compounds can be found in patent publication US4122179A, “Acid addition salts of vincamine and apovincamine” (priority 1976, dated 1978).

Series [1] can be described thus: LD50 / acute toxicity, intraperitoneal route. The format is in vivo. As to conditions: i.p.; for Toxicity (Gleason): Gleason class in words, classes not defined.
Series [2] is described as follows: Hematic levels at different times after oral administration (absorption). The format is in vivo, Wistar rat. The conditions noted are these: 100 mg/kg expressed as vincamine/apovincamine, 5% carboxymethyl cellulose suspension, 100 mg/kg. Put shortly: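 Wistar rats dosed orally at 100 mg/kg (expressed as vincamine or apovincamine) as a suspension in 5% carboxymethyl cellulose. Blood levels measured chromatographically at 0, 30, 120, 240, 480 min, 10 h and 12 h to define absorption and time of maximum concentration.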

Another series relates to vertebral arteria. Nature of the series: Cerebral vasodilating activity: hematic flow at the vertebral arteria after i.v. administration. The format is in vivo. The conditions noted are these: i.v. (femoral vein), 5 mg/kg of vincamine/apovincamine, anesthetized dog, 4 animals per compound; 5 mg/kg. Put shortly: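 In anesthetized dogs, groups of 4 per compound, left vertebral artery blood flow recorded with periarterial electromagnetic flowmeters after i.v. dosing. Values are percent change in flow.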

The nature of another series: Solubility. The format is physicochemical. The conditions noted are these: qualitative; for solubility in alcohol: alcohol (ethyl alcohol).

Structures are written as SMILES.

A word on the LD50: it is the dose at which mortality reaches 50%. Higher therefore signals a less toxic substance.

For the compound `CC[C@@]12C=C(C(=O)OC)n3c4c(c5ccccc53)CCN(CCC1)[C@H]42` [Example 15.b, Apovincamine nicotinate], in series [1], the LD50 is on record as 750 mg/kg and the “Toxicity (Gleason)” value is on record as “modest”. In series [2], this compound yielded a Max. conc. time of 60 min. Besides, the “% increase (percent variation of hematic flow, left vertebral arteria)” value in the series with vertebral arteria was 28.3%. In “Solubility”, the solubility in alcohol entry was “insoluble” and the solubility in water result is on record as “insoluble”.
On to `CC[C@]12CCCN3CCc4c(n(c5ccccc45)[C@@](O)(C(=O)OC)C1)[C@@H]32` [Example 16.a, Vincamine acetylsalicylate], for which, in series [1], the 50% lethal dose (LD50) turned out to be 900 mg/kg and the “Toxicity (Gleason)” value was “modest”. The Max. conc. time in series [2] was determined as 20 min. Besides, the “% increase (percent variation of hematic flow, left vertebral arteria)” value in the series with vertebral arteria turned out to be 31.7%. Besides, in “Solubility”, the “solubility in the common (organic) solvents” value (“solubility in the common” below) is on record as “poorly soluble”.
Take `CC[C@@]12C=C(C(=O)OC)n3c4c(c5ccccc53)CCN(CCC1)[C@H]42` [Example 16.b, Apovincamine acetylsalicylate]: in series [1], the 50% lethal dose (LD50) is on record as 750 mg/kg and the “Toxicity (Gleason)” value is given as “modest”. The same compound displayed a Max. conc. time in series [2] of 60 min. In addition, the “% increase (percent variation of hematic flow, left vertebral arteria)” value in the series on vertebral arteria is 40.1%. Also, in “Solubility”, the solubility in alcohol result is given as “soluble” and the solubility in water entry is reported as “very little soluble”.
Turning to `CC[C@]12CCCN3CCc4c(n(c5ccccc45)[C@@](O)(C(=O)OC)C1)[C@@H]32` [Example 18.a, Vincamine enanthate], in series [1], the LD50 came to 750 mg/kg and the “Toxicity (Gleason)” value is on record as “modest”. Further, the Max. conc. time in series [2] is 60 min. Besides, in the series with vertebral arteria, the “% increase (percent variation of hematic flow, left vertebral arteria)” value stood at 27.7%. Moreover, the “solubility in the common” value in the series “Solubility” was “insoluble”.
Consider `CC[C@@]12C=C(C(=O)OC)n3c4c(c5ccccc53)CCN(CCC1)[C@H]42` [Example 18.b], for which, in series [1], the LD50 was found to be 1500 mg/kg and the “Toxicity (Gleason)” value is given as “light”. Besides, in series [2], the Max. conc. time came to 120 min. The “% increase (percent variation of hematic flow, left vertebral arteria)” value with vertebral arteria was determined as 33.1%. Also, in “Solubility”, the solubility in alcohol entry is “insoluble” and the solubility in water result is reported as “insoluble”.
Turning to `CC[C@]12CCCN3CCc4c(n(c5ccccc45)[C@@](O)(C(=O)OC)C1)[C@@H]32` [Example 19.a, Vincamine p-chlorophenoxyacetate], in series [1], the LD50 worked out at 750 mg/kg and the “Toxicity (Gleason)” value is recorded as “modest”. In series [2], this compound returned a Max. conc. time of 480 min. The “% increase (percent variation of hematic flow, left vertebral arteria)” value in the series with vertebral arteria is 22.0%. For the same compound, in “Solubility”, the solubility in alcohol result is “soluble”, the “solubility in the common” value is “insoluble” and the solubility in water entry was “insoluble”.
Consider `CC[C@@]12C=C(C(=O)OC)n3c4c(c5ccccc53)CCN(CCC1)[C@H]42` [Example 19.b, Apovincamine p-chlorophenoxyacetate], for which, in series [1], the LD50 came out at 750 mg/kg and the “Toxicity (Gleason)” value was “modest”. In series [2], the Max. conc. time was determined as 480 min. Further, in the series with vertebral arteria, the “% increase (percent variation of hematic flow, left vertebral arteria)” value was found to be 28.4%. Besides, the solubility in water result in “Solubility” was “insoluble”.
In the case of `CC[C@]12CCCN3CCc4c(n(c5ccccc45)[C@@](O)(C(=O)OC)C1)[C@@H]32` [Example 20.a, Vincamine theophylline-7-acetate], in series [1], the LD50 turned out to be 700 mg/kg and the “Toxicity (Gleason)” value is on record as “modest”. The same compound displayed a Max. conc. time in series [2] of 60 min. Moreover, the “% increase (percent variation of hematic flow, left vertebral arteria)” value in the series on vertebral arteria is 24.5%. In “Solubility”, the solubility in alcohol entry is recorded as “soluble”, the “solubility in the common” value is “insoluble” and the solubility in water result was “insoluble”.
For `CC[C@]12CCCN3CCc4c(n(c5ccccc45)[C@@](O)(C(=O)OC)C1)[C@@H]32` [Example 21.a], in series [1], the 50% lethal dose (LD50) is on record as 900 mg/kg and the “Toxicity (Gleason)” value is “modest”. The compound also returned a Max. conc. time in series [2] of 20 min. Also, in the series on vertebral arteria, the “% increase (percent variation of hematic flow, left vertebral arteria)” value was found to be 30.0%. In addition, in “Solubility”, the “solubility in the common” value is listed as “insoluble” and the solubility in water entry is reported as “insoluble”.
`CC[C@@]12C=C(C(=O)OC)n3c4c(c5ccccc53)CCN(CCC1)[C@H]42` [Example 21.b, Apovincamine caproate]: in series [1], the median lethal dose (LD50) is given as 1900 mg/kg and the “Toxicity (Gleason)” value is given as “light”. In series [2], this compound registered a Max. conc. time of 60 min. Also, the “% increase (percent variation of hematic flow, left vertebral arteria)” value with vertebral arteria is recorded as 36.4%. Also, in “Solubility”, the solubility in alcohol result is listed as “insoluble” and the solubility in water result is “insoluble”.
Regarding `CC[C@]12CCCN3CCc4c(n(c5ccccc45)[C@@](O)(C(=O)OC)C1)[C@@H]32` [Example 22.a, Vincamine caprate], in series [1], the median lethal dose (LD50) came out at 2000 mg/kg and the “Toxicity (Gleason)” value is listed as “negligible”. Besides, the Max. conc. time in series [2] is 120 min. For the same compound, in the series on vertebral arteria, the “% increase (percent variation of hematic flow, left vertebral arteria)” value is recorded as 23.9%. In addition, in “Solubility”, the “solubility in the common” value was “insoluble” and the solubility in water result is “insoluble”.
In the case of `CC[C@@]12C=C(C(=O)OC)n3c4c(c5ccccc53)CCN(CCC1)[C@H]42` [Example 22.b, Apovincamine caprate], in series [1], the median lethal dose (LD50) stood at 1900 mg/kg and the “Toxicity (Gleason)” value was “light”. Moreover, the Max. conc. time in series [2] came to 240 min. The “% increase (percent variation of hematic flow, left vertebral arteria)” value in the series with vertebral arteria was 28.2%. Moreover, in the series “Solubility”, the solubility in alcohol entry is reported as “insoluble” and the solubility in water entry is on record as “insoluble”.
For `CC[C@]12CCCN3CCc4c(n(c5ccccc45)[C@@](O)(C(=O)OC)C1)[C@@H]32` [Example 25.a, Vincamine (D,L)-mandelate], in series [1], the median lethal dose (LD50) was determined as 900 mg/kg and the “Toxicity (Gleason)” value is listed as “modest”. This compound also yielded a Max. conc. time in series [2] of 20 min. Besides, the “% increase (percent variation of hematic flow, left vertebral arteria)” value in the series on vertebral arteria was 39.4%. For the same compound, in “Solubility”, the solubility in alcohol entry is given as “soluble”, the “solubility in the common” value is on record as “insoluble” and the solubility in water entry is “insoluble”.
As to `CC[C@]12CCCN3CCc4c(n(c5ccccc45)[C@@](O)(C(=O)OC)C1)[C@@H]32` [Example 26.a], in series [1], the 50% lethal dose (LD50) is listed as 1000 mg/kg and the “Toxicity (Gleason)” value is recorded as “modest”. Moreover, the Max. conc. time in series [2] is 120 min. For the same compound, in the series with vertebral arteria, the “% increase (percent variation of hematic flow, left vertebral arteria)” value amounted to 23.8%. In addition, in the series “Solubility”, the “solubility in the common” value was “insoluble” and the solubility in water result was “insoluble”.
In the case of `CC[C@@]12C=C(C(=O)OC)n3c4c(c5ccccc53)CCN(CCC1)[C@H]42` [Example 26.b, Apovincamine indolyl-3-acetate], in series [1], the LD50 is 750 mg/kg and the “Toxicity (Gleason)” value is “modest”. The Max. conc. time in series [2] stood at 120 min. The “% increase (percent variation of hematic flow, left vertebral arteria)” value in the series on vertebral arteria came to 28.7%. For the same compound, in “Solubility”, the solubility in alcohol entry is recorded as “poorly soluble” and the solubility in water entry is “insoluble”.
On to `CC[C@]12CCCN3CCc4c(n(c5ccccc45)[C@@](O)(C(=O)OC)C1)[C@@H]32` [Example 27.a, Vincamine hydroquinone], for which, in series [1], the 50% lethal dose (LD50) was determined as 500 mg/kg and the “Toxicity (Gleason)” value is “modest”. Further, the Max. conc. time in series [2] was 120 min. The “% increase (percent variation of hematic flow, left vertebral arteria)” value with vertebral arteria turned out to be 29.1%. Further, in “Solubility”, the “solubility in the common” value is “insoluble” and the solubility in water result is given as “insoluble”.
On to `CC[C@]12CCCN3CCc4c(n(c5ccccc45)[C@@](O)(C(=O)OC)C1)[C@@H]32` [Example 28.a, Vincamine salicylate], for which, in series [1], the median lethal dose (LD50) was found to be 700 mg/kg and the “Toxicity (Gleason)” value was “modest”. The Max. conc. time in series [2] is 240 min. The “% increase (percent variation of hematic flow, left vertebral arteria)” value in the series with vertebral arteria is 25.7%. Moreover, in the series “Solubility”, the solubility in alcohol result is “soluble”, the “solubility in the common” value is on record as “insoluble” and the solubility in water result was “insoluble”.
For `CC[C@@]12C=C(C(=O)OC)n3c4c(c5ccccc53)CCN(CCC1)[C@H]42` [Example 28.b, Apovincamine salicylate], in series [1], the median lethal dose (LD50) is 750 mg/kg and the “Toxicity (Gleason)” value is on record as “modest”. Also, in series [2], the Max. conc. time came out at 240 min. Besides, in the series on vertebral arteria, the “% increase (percent variation of hematic flow, left vertebral arteria)” value is recorded as 26.7%. The solubility in alcohol entry in “Solubility” is listed as “soluble”.
For `CC[C@]12CCCN3CCc4c(n(c5ccccc45)[C@@](O)(C(=O)OC)C1)[C@@H]32` [Example 29.a, Vincamine dihydroxyphenylalanine (DOPA)], in series [1], the LD50 was 1500 mg/kg and the “Toxicity (Gleason)” value is listed as “light”. The Max. conc. time in series [2] was 20 min. The “% increase (percent variation of hematic flow, left vertebral arteria)” value in the series with vertebral arteria was determined as 38.2%. Besides, in the series “Solubility”, the “solubility in the common” value is “practically insoluble” and the solubility in water result is reported as “practically insoluble”.
Take `CC[C@@]12C=C(C(=O)OC)n3c4c(c5ccccc53)CCN(CCC1)[C@H]42` [Example 29.b, Apovincamine dihydroxyphenylalanine]: in series [1], the 50% lethal dose (LD50) worked out at 900 mg/kg and the “Toxicity (Gleason)” value is reported as “light”. In series [2], this compound displayed a Max. conc. time of 120 min. For the same compound, in the series with vertebral arteria, the “% increase (percent variation of hematic flow, left vertebral arteria)” value is listed as 41.3%. The “solubility (solvent not given)” value in “Solubility” (solvent not stated) was “insoluble”.
